Results as given in US10307383B2, “Cosmetic composition for preventing or ameliorating hypersensitive skin comprising cedrol or derivatives thereof, or pharmaceutically acceptable salts thereof” (University of Seoul Industry Cooperation Foundation, priority 2017, dated 2019).

Legend:
Assay type in all cases: in vivo, Balb/c mouse
[1] = system: psoriasis induced mice (imiquimod); assay: Ear thickness reduction effect in the psoriasis induced mice (PASI); settings: for mean ear thickness point (PASI): day 7, 100 mg/kg oral once a day, IMQ applied, IMQ alone 3.5
Procedure: (§1) To investigate the delayed effect of cedrol, cedryl acetate, and alpha-cedrene on the development of psoriasis, total 5 groups of mice were prepared (8 mice/group). First, the hair of the entire back of the 8-week-old male Balb/c mouse whose immune system was weakened was removed by using a hair clipper (Kimlaube Hair pen 325,327, Rikei, Korea). In the middle of the shaved back of the mouse, 2 mg of imiquimod (3M Health Care Limited, England) was applied in the area of 2 cm×1.5 cm and also 1,125 mg of imiquimod was applied on the right ear of the mouse every day once a day to induce psoriasis.
(§2) The mice prepared above were divided into the distilled water treated group (IMQ), the cedrol treated group (C), the cedryl acetate treated group (CA), and the alpha-cedrene treated group (CE). At this time, the mice were orally treated with distilled water at the concentration of 200 μl/mouse and cedrol or its derivatives at the concentration of 200 μl/mouse (100 mg/kg). The day when distilled water or the compound administration started was recorded as day 0 and the administration was performed once a day for a week, during which photo-recording was performed every day (FIGS. 2A˜2D). In the meantime, instead of applying imiquimod, 40 mg of vaseline was applied on the back of the control group (CONT) and 22.5 mg of vaseline was applied on the right ear of the control group. And the control group was orally administered with distilled water (200 μl/mouse).
Then, the psoriasis area severity index (PASI) was calculated with the range of 1˜4 to confirm the reduction effect of the compounds on the ear thickness.

[2] = system: psoriasis induced mice (imiquimod); assay: Recovery effect on skin wrinkles of the psoriasis induced mice
Procedure: (§3) Imiquimod was applied to the psoriasis induced mice which had developed psoriasis for a week in Example <2-1>. The application was stopped 8 days after the application began. The groups CON and IMQ were treated with distilled water, the group C was treated with cedrol, the group CA was treated with cedryl acetate, the group CE was treated with alpha-cedrene alone at the concentration of 100 mg/kg in 200 μl, every day via oral-administration. Day 8 was the day the imiquimod application was stopped, since then the compounds were administered for 1 week once a day, during which photo-recording was performed (FIGS. 13A˜13D).
The psoriasis induced mice orally administered with cedrol, cedryl acetate, and alpha-cedrene of Example <3-1> were observed by the naked eye, and the number of mice showing the recovery of skin wrinkles was counted.

[3] = system: psoriasis induced mice (imiquimod); assay: Accelerating effect on hair regrowth of the psoriasis induced mice; settings: for number of mice showing hair regrowth: 8 mice/group
Procedure: as §3
The psoriasis induced mice orally administered with cedrol, cedryl acetate, and alpha-cedrene of Example <3-1> were observed by the naked eye, and the number of mice showing hair regrowth was counted.

[4] = system: psoriasis induced mice (imiquimod); assay: Recovery effect on keratosis of the psoriasis induced mice after termination of imiquimod (PASI)
Procedure: as §3
(§4) Then, the psoriasis area severity index (Psoriasis Area Severity Index, PASI) was calculated, based on which the recovery effect on keratosis was evaluated.

[5] = system: IL-17A expression in the spleen; assay: Inhibition of IL-17A expression in the spleen of the psoriasis induced mice (real-time PCR); settings: 100 mg/kg oral, IMQ applied; for IL-17A expression value in the spleen (non-treated control group regarded as value 1): real-time PCR, IMQ alone 54.9±5.5
Procedure: as §1, §2
The inhibition of IL-17A expression in the spleen of the psoriasis Induced mice according to the oral administration of cedrol, cedryl acetate, and alpha-cedrene was investigated by real-time PCR (polymerase chain reaction).
Particularly, the spleen was extracted from the psoriasis Induced mice orally administered with cedrol, cedryl acetate, and alpha-cedrene of Example <2-1>. Total RNA was extracted from the spleen by the conventional method. To synthesize cDNA, 2 μg of RNA was loaded in 9 μl of DEPC (RNase free water), indicating the dilution of the concentration. 1 μl of oligo dT was added thereto, followed by reaction at 70° C. for 10 minutes. The sample was treated on ice for 5 minutes, to which 2 μl of 10× reaction buffer, 2 μl of dNTP (10 mM each), 1 μl of M-MLV reverse transcriptase, and 5 μl of DNase free water were added to make the total volume of the reaction mixture 20 μl. The mixture was reacted at 42° C. for 1 hour to synthesize cDNA. The reaction mixture was heated at 72° C. for 10 minutes to remove the reverse transcriptase activity. Then, the reaction mixture was stored at −20° C. Real-time PCR was performed by using AMPIGENE qPCR 1-Step Green Kit (Enzo Life Sciences Inc, USA). […]

[6] = system: psoriasis induced mice (imiquimod); assay: Recovery effect on skin flair of the psoriasis induced mice after termination of imiquimod (PASI); settings: for PASI reflecting skin flair: day 8 (imiquimod application stopped), 100 mg/kg oral; for skin flair disappearance (in words): on day 16, 100 mg/kg oral after termination of imiquimod
Procedure: as §3, §4

[7] = system: psoriasis induced mice (imiquimod); assay: Recovery effect on ear thickness of the psoriasis induced mice after termination of imiquimod (PASI)
Procedure: as §3
The psoriasis area severity index (Psoriasis Area Severity Index, PASI) was given from the point 1 to point 4, based on which the recovery effect on the ear thickness was evaluated.

[8] = system: psoriasis induced mice (imiquimod); assay: Skin pain reduction effect in the psoriasis induced mice (back pinch, mice counted); settings: for number of mice showing skin pain: IMQ applied
Procedure: as §1, §2
When the back of the psoriasis induced mice orally administered with cedrol, cedryl acetate, and alpha-cedrene of Example <2-1> was pinched, those mice who sound painfully with strong rejection were counted. Skin pain is a symptom of psoriasis, and when IMQ is applied, skin pain becomes stronger as time goes by.

[9] = system: psoriasis induced mice (imiquimod); assay: Skin hemorrhage spot reduction effect in the psoriasis induced mice; settings: for number of mice showing hemorrhage spots: IMQ applied, 8 mice/group
Procedure: as §1, §2
The psoriasis induced mice orally administered with cedrol, cedryl acetate, and alpha-cedrene of Example <2-1> were observed by the naked eye, and the number of mice showing hemorrhage spots was counted. Hemorrhage spot is a symptom of psoriasis, and when IMQ is applied, the number of skin hemorrhage spots increases as time goes by.

[10] = day 8, 100 mg/kg oral, 8 mice/group
[11] = day 16, 100 mg/kg oral after termination of imiquimod
[12] = day 13, 100 mg/kg oral after termination of imiquimod
[13] = day 16, 100 mg/kg oral after termination of imiquimod, distilled water 5
[14] = day 8 (imiquimod application stopped), 100 mg/kg oral
[15] = day 15, 100 mg/kg oral once a day after termination of imiquimod
[16] = day 7, 100 mg/kg oral, IMQ alone 5
[17] = 100 mg/kg oral after termination of imiquimod

Row | Compound | mean ear thickness point (PASI) [1] [point] | number of mice showing skin wrinkles [2, 10] [mice] | number of mice showing skin wrinkles [2, 11] | number of mice showing hair regrowth [3, 12] | number of mice showing hair regrowth [3, 13] | PASI reflecting keratosis [4, 14] [point] | IL-17A expression value in the spleen (non-treated control group regarded as value 1) [5] | PASI reflecting skin flair [6] [point] | skin flair disappearance (in words) [6] | PASI reflecting the ear thickness [7, 14] [point] | number of mice showing hemorrhage spots ([9]; day 5, 100 mg/kg oral) | number of mice showing hemorrhage spots [9, 16] | also measured
1 | CC1=CC[C@@]23C[C@@H]1C(C)(C)[C@@H]2CC[C@H]3C [alpha-cedrene, Alpha-cedrene] | 2.6 | 3 | no mouse | one | all the mice | 4.0±0.6 | 31.0±3.1 | 4.0±1.0 | skin flair of all mice disappeared | 4.0±0.0 | two | one | PASI reflecting keratosis [4, 15]: 0.3±0.6 point; IL-17A expression inhibition effect in the spleen, comparison in words [5]: strongest inhibition effect; PASI reflecting the ear thickness [7, 15]: 0.7±0.6 point; skin pain reduction effect, comparison in words ([8]; 100 mg/kg oral, 7 days): strongest reduction effect; number of mice showing skin pain ([8]; during the 7 day observation period, 100 mg/kg oral): no mice
2 | CC(=O)O[C@]1(C)CC[C@@]23C[C@@H]1C(C)(C)[C@@H]2CC[C@H]3C [cedryl acetate, Cedryl acetate] | 2.3 | 3 | no mouse |  | 7 mice | 4.0±0.6 | 7.4±0.7 | 4.0±0.0 |  | 4.0±0.6 | one | one | ear thickness reduction effect, comparison in words ([1]; 100 mg/kg oral, 7 days): strongest reduction effect; number of mice showing hair regrowth ([3]; day 14, 100 mg/kg oral after termination of imiquimod): one; PASI reflecting keratosis ([4]; day 14, 100 mg/kg oral once a day after termination of imiquimod): 1.0±0.0 point; ear thickness recovery effect, comparison in words [7, 17]: strongest recovery effect; ear thickness recovered to normal (in words) ([7]; from day 15, 100 mg/kg oral after termination of imiquimod): all 8 mice were recovered to normal; number of mice showing skin pain ([8]; day 6, 100 mg/kg oral, 8 mice/group): one; number of mice showing skin pain ([8]; day 7, 100 mg/kg oral, 8 mice/group, IMQ alone 5): no mice; skin hemorrhage spot reduction effect, comparison in words ([9]; 100 mg/kg oral, 7 days): strongest reduction effect
3 | C[C@@H]1CC[C@H]2C(C)(C)[C@H]3C[C@@]12CC[C@@]3(C)O [cedrol, Cedrol] | 2.6 | 5 |  | 2 mice | all the mice | 3.0±0.6 | 1.1±0.1 | 3.0±0.6 | skin flair of all mice disappeared | 4.0±0.6 |  | 3 mice | skin wrinkle recovery effect, comparison in words [2, 17]: strongest recovery effect; number of mice showing skin wrinkles ([2]; after day 15, 100 mg/kg oral after termination of imiquimod): no mouse; accelerating effect on hair regrowth, comparison in words [3, 17]: strongest accelerating effect; keratosis recovery effect, comparison in words [4, 17]: strongest recovery effect; keratosis recovered to normal (in words) ([4]; on day 15, 100 mg/kg oral after termination of imiquimod): all 8 mice were recovered to normal; skin flair recovery effect, comparison in words [6, 17]: strongest recovery effect; PASI reflecting the ear thickness ([7]; day 16, 100 mg/kg oral once a day after termination of imiquimod): 0.7±0.6 point; number of mice showing skin pain ([8]; day 4, 100 mg/kg oral, 8 mice/group): one; number of mice showing skin pain ([8]; day 5, 100 mg/kg oral, 8 mice/group): no mice; number of mice showing hemorrhage spots ([9]; day 4, 100 mg/kg oral): one
